Several values for one entry are separate records, joined by “and”; a condition that tells them apart may be missing. Equal values may be shown once. Entries after “also recorded” stand apart in the source; their conditions may differ.
Key:
[1] = test system: women presenting 0-120 hours after unprotected intercourse; assay: Prospective multicenter, single-blind randomized study of ulipristal acetate versus levonorgestrel as emergency contraception 0-120 hours after unprotected intercourse (Example 2); type: in vivo
Method: This was a prospective, single-blind (subject and sponsor blind, investigator not blind), randomized, multicenter, 2-arm parallel comparative study designed to evaluate the efficacy of a single dose of ulipristal acetate (30 mg tablets) compared to levonorgestrel (1.5 mg) administered for EC within 120 hours after unprotected intercourse. It was performed in 10 centers in Europe and 25 centers in the US. Women ([…]), with regular menstrual cycles (between 24 and 35 days and intra-individual variations less than or equal to 5 days), who presented for EC within 120 hours after unprotected intercourse at a participating study site and who met the inclusion/exclusion criteria were enrolled into the study after they signed informed consent form. Subjects were excluded from the study in case of ongoing pregnancy or breast-feeding or current use of hormonal contraception or IUD. The study medication (ulipristal acetate 30 mg or levonorgestrel 1.5 mg) was administered according to a random allocation procedure generated electronically. Treatment was administered orally immediately after all eligibility criteria (including negative urine pregnancy test) had been verified. At follow-up visit (5-7 days after expected onset of menses) a high-sensitivity urine pregnancy test was systematically performed. If the urine pregnancy was positive, this was confirmed by a serum β-hCG test. The pre-treatment serum specimen was also assayed for β-hCG to verify whether the pregnancy pre-dated intake of the study drug. Confirmed pregnancies were further evaluated by scrum quantitative hCG(s) and transvaginal ultrasound(s) to determine the estimated fertilization date. Based on previous similar clinical trials, pregnancy rates in the ulipristal acetate and levonorgestrel group were expected to be 1% and 1.7% respectively. […] For this comparison, the non-inferiority margin was set to 1.6 in odds ratio (a non-inferiority margin of 1.6 in odds ratio is equivalent to a non-inferiority margin of 1% in percent point with an assumed pregnancy rate with levonorgestrel of 1.7%) with a type I error rate of 5% (two-sided) and 85% power. In order to compensate for an anticipated lost to follow-up rate of 10%, 910 patients per group had to be included in the 0-72 hour time interval. Furthermore, recruitment of patients requesting emergency contraception between 72 h and 120 h was estimated to represent 1 out of 10 patients. Therefore, taking into account recruitment in the 72-120 h interval, 1022 patients per group were to be randomized for a total of 2044 patients. […] In order to ensure unbiased evaluation of pregnancy data, an independent, autonomous DSMB composed of two experts in the field of gynecology, one methodologist and one expert in ethical questions was established to review incidence of pregnancy with respect to unacceptability threshold and give recommendations during the course of the clinical trial. In addition, the DSMB assessed whether each pregnancy was “compatible” or “not compatible” with treatment failure based on available data.

[2] = test system: women treated with ulipristal acetate in the two trials; assay: Pooled efficacy analysis of Example 1 and Example 2 (Example 3); type: in vivo; conditions: mITT pooled population
Description: When the efficacy data of women treated with ulipristal acetate in the two trials (Example 1 and Example 2) are grouped in a pooled analysis, further evidence of the efficacy of the method is provided.

[3] = used within 72 hours of UPI; cited from earlier work
[4] = test system: women presenting 48-120 hours after unprotected intercourse; assay: Prospective multicenter, open label study of ulipristal acetate as emergency contraception 48-120 hours after unprotected intercourse (Example 1); type: in vivo; conditions: for Observed Pregnancy Rate (%): single 30 mg dose
Method: Women 18 and older who presented for emergency contraception at family planning clinics located in the United States, 48-120 hours after UPI and who met the inclusion/exclusion criteria were enrolled into the study after signing the IRB approved informed consent. The inclusion criteria were regular menstrual cycles 24-35 (+/−5) days in length, no current use of hormonal contraception, willingness not to use hormonal contraception until study completion, and agreement to use barrier methods of contraception from enrollment to study completion. Exclusion criteria included pregnancy, breastfeeding, IUD, tubal ligation or partner vasectomy, and uncertainty about recent menstrual history.
A total of up to three visits were scheduled over the course of the study. The first visit, considered Day 1, included the screening and treatment phases. A high sensitivity urine pregnancy test (level of detection 20 mIU/ml) was performed and a blood sample was taken and stored for later serum quantitative β-hCG testing to exclude pre-existing pregnancy if a pregnancy was detected during the study.
Women were provided daily diaries in which to record further acts of intercourse, contraception used, vaginal spotting or bleeding, concomitant medication and adverse events during study duration.
At follow-up visit (5-7 days after expected onset of menses) a high-sensitivity urine pregnancy test was systematically performed. If the urine pregnancy was positive, this was confirmed by a serum β-hCG test. The pre-treatment serum specimen was also assayed for β-hCG to verify whether the pregnancy pre-dated intake of the study drug. Confirmed pregnancies were further evaluated by scrum quantitative hCG(s) and transvaginal ultrasound(s) to determine the estimated fertilization date.
Women could enroll in the study more than once but they must have completed prior study participation before re-enrolling.
The primary efficacy measurement was the pregnancy rate, defined as the number of pregnancies after administration of ulipristal acetate for EC divided by the number of women treated. The primary efficacy analysis compared this pregnancy rate to the pregnancy rate that would have been expected in the absence of EC treatment, which was calculated according to Trussell's method (Trussell et al, 1998) using the pooled recognizable set of conception probabilities and the estimated cycle day of UPI based on self-reported date of last menstrual period, cycle length and date of UPI.
The main secondary efficacy analysis compared the upper bound of the 95% confidence interval of the observed pregnancy rate to a clinical irrelevance threshold of 4%. This threshold corresponds to a reduction by half of the expected 8% pregnancy rate in the absence of contraception as observed in previous international studies (Von Hertzen et al, 1998; Piaggio, 1999; Von Hertzen et al, 2002). The study was to be considered a success only if both the primary efficacy and the main secondary analyses were conclusive. Other secondary analyses included calculation of the prevented fraction, defined as the number of pregnancies prevented (expected minus observed) divided by the number of pregnancies expected, and analysis of trend in pregnancy rates over time (by 24-hour interval) using a logistic regression model.
The population analyzed for primary efficacy excluded women who were lost to follow-up and women ages 36 and older due to reduced fertility in this age category based upon FDA guidance. Further participations in the study allowed by protocol were also excluded from primary efficacy evaluation, as well as pregnancies that were determined as not compatible with study drug failure by a Data Safety Monitoring Board (DSMB) consisting of independent experts.
Study enrolment was stopped once 1200 subjects meeting the criteria for the primary efficacy analysis had completed the study.

[5] = 0-72 h mITT, ulipristal acetate 30 mg or levonorgestrel 1.5 mg single oral dose
[6] = >24 to <=48 hours relative to the previous 24 hrs time interval, mITT
[7] = >48 to <=72 hours relative to the previous 24 hrs time interval, mITT
[8] = >72 to <=96 hours relative to the previous 24 hrs time interval, mITT
[9] = mITT, unprotected intercourse within 72 hours of EC intake (p=0.253)
[10] = mITT, unprotected intercourse within 120 hours of EC intake (p=0.127)
[11] = 48-72 h after UPI, mITT population
[12] = >72-96 h after UPI, mITT population
[13] = >96-120 h after UPI, mITT population

C#C[C@]1(O)CC[C@H]2[C@@H]3CCC4=CC(=O)CC[C@@H]4[C@H]3CC[C@@]21CC [levonorgestrel]
Pregnancy Rate n ([1]; 0-72 h mITT (n = 1694)): 22
Pregnancy Rate (%) [1, 5]: 2.59%
Pregnancy Rate (%) ([1]; 0-72 h mITT, ulipristal acetate 30 mg or levonorgestrel 1.5 mg single oral dose, listed as Levonorgestrel): 2.6%
Pregnancy Rate (%) ([1]; 0-120 h mITT): 2.6%
Pregnancy Rate n ([1]; 0-120 h mITT (n = 1899)): 25
Pregnancy Rate (%) ([1]; 72-120 h mITT): 2.8%
Pregnancy Rate n ([1]; 72-120 h mITT (n = 203)): 3
Odds ratio [1, 6]: 0.73
Odds ratio [1, 7]: 1.17
Odds ratio [1, 8]: 1.08
Odds ratio ([1]; >96 to <=120 hours relative to the previous 24 hrs time interval, mITT): 1.11
prevented expected pregnancies [1, 9]: 52.2%
prevented expected pregnancies [1, 10]: 52.8%

CC(=O)O[C@]1(C(C)=O)CC[C@H]2[C@@H]3CCC4=CC(=O)CCC4=C3[C@@H](c3ccc(N(C)C)cc3)C[C@@]21C [ulipristal acetate, 17α-acetoxy-11β-[4-N,N-dimethylamino-phenyl)-19-norpregna-4,9-diene-3,20-dione]
Pregnancy Rate n ([1]; 0-72 h mITT (n = 1694)): 15
Pregnancy Rate (%) [1, 5]: 1.78%
Pregnancy Rate (%) ([1]; 0-72 h mITT, ulipristal acetate 30 mg or levonorgestrel 1.5 mg single oral dose, listed as Ulipristal acetate): 1.8%
Pregnancy Rate (%) ([1]; 0-120 h mITT): 1.60%
Pregnancy Rate n ([1]; 0-120 h mITT (n = 1899)): 15
Pregnancy Rate (%) ([1]; 0-120 h mITT, listed as Ulipristal acetate): 1.6%
Pregnancy Rate (%) ([1]; 72-120 h mITT): 0.0%
Pregnancy Rate n ([1]; 72-120 h mITT (n = 203)): no pregnancy was observed
Pregnancy Rate n ([1]; 72-120 h mITT (n = 203), listed as Ulipristal acetate): 0
Pregnancy Rate (%) ([1]; >0 to <=24 hours from unprotected intercourse to treatment, mITT): 1.6%
Pregnancy Rate (%) ([1]; >24 to <=48 hours from unprotected intercourse to treatment, mITT): 2.13% and 2.1%
Odds ratio [1, 6]: 1.33
Pregnancy Rate (%) ([1]; >48 to <=72 hours from unprotected intercourse to treatment, mITT): 1.48% and 1.5%
Odds ratio [1, 7]: 0.69
Odds ratio [1, 8]: 0.00
prevented expected pregnancies [1, 9]: 68.1%
prevented expected pregnancies [1, 10]: 72.2%
pregnancies prevented compared to the expected pregnancy rate, ulipristal acetate versus levonorgestrel ([1]; p<0.05 one-sided randomization test within 120 hours, p<0.05 two-sided between 72 and 120 hours, mITT): significantly more pregnancies were prevented with ulipristal acetate than levonorgestrel
Overall observed pregnancy rate (%) (pooled) ([2]; 0-24 h): 1.60%
Overall observed pregnancy rate (%) (pooled) ([2]; >24-48 h): 2.07%
Overall observed pregnancy rate (%) (pooled) ([2]; >48-72 h): 2.16%
Overall observed pregnancy rate (%) (pooled) ([2]; >72-96 h): 1.76%
Overall observed pregnancy rate (%) (pooled) ([2]; >96-120 h): 1.04%
efficacy for preventing pregnancy compared with levonorgestrel [3]: as effective as levonorgestrel; also recorded: as efficacious as levonorgestrel
Effectiveness (Prevented Fraction) [4, 11]: 61.9%
Observed Pregnancy Rate (%) [4, 11]: 2.3%
Effectiveness (Prevented Fraction) [4, 12]: 57.9%
Observed Pregnancy Rate (%) [4, 12]: 2.1%
Effectiveness (Prevented Fraction) [4, 13]: 75.0%
Observed Pregnancy Rate (%) [4, 13]: 1.3%
Observed Pregnancy Rate (%) ([4]; All (48-120 h after UPI), mITT / Primary Efficacy Population): 2.1%
Effectiveness (Prevented Fraction) ([4]; All (48-120 h after UPI), mITT population, expected pregnancies by Trussell's method): 62.3%
observed pregnancy rate ([4]; Safety Population of 1533 women, 48-120 h after UPI): 1.9%
pregnancies detected at follow-up ([4]; all women enrolled, before DSMB exclusion of 3 pregnancies): 29
linear trend of pregnancy rates over time (logistic regression model) ([4]; by 24-hour interval, 48-120 h after UPI, p=0.2490): no evidence of change in efficacy over time

From US20150018325A1, “METHOD FOR LATE POST COITAL CONTRACEPTION USING ULIPRISTAL ACETATE” (LABORATOIRE HRA-PHARMA, priority 2010, published 2015)
